Laboratory results: patent publication US6162799A, “Pesticidal compounds” (BTG International Limited, priority 1995, dated 2000)
≈ marks a conversion by molar mass, not a printed value. Read-outs that look alike come from different tables or passages of the source.

Tests used:
Type in all cases: in vivo
[1] = test system: Bemisia tabaci; assay: Film/vial test on whitefly (BT), susceptible strain SUD-S; conditions: 48 h; for mortality at 100 ppm: read-out: BT (SUD-S) kill at 100 ppm
Method: (§1) Pesticidal activity was assessed against houseflies, mustard beetles, mites and whitefly using the following methods.
Whitefly (BT) (Bemisia tabaci)
Acetone solutions (0.100 ml) of the test compounds were placed in 10 ml glass vials and evaporated with rotation to deposit a film of the compound. Thirty adult whiteflies were placed inside the vial, then after 60 minutes, the treated insects were transferred onto untreated cotton leaf discs which were kept moist on a bed of agar gel. The temperature was maintained at 25° C. and mortality assessed after 48 hours. Three replicates were used at each of 5 to 7 dose levels per compound. LC50 values were calculated by using a computer software package ("Polo-PC" available from LeOra Software, Berkeley, Calif.). (See M. R. Cahill and B. Hackett in Proceedings Brighton Crop Protection Conference, 1992). The test was carried out using a susceptible strain of whitefly (SUD-S) which was collected in Sudan in 1978 from cotton.
(§2) The values given are LD50 (μg/insect) or LC50 (ppm solution of test compound) unless otherwise specified.

[2] = test system: Tetranychus urticae; assay: Immersion test on mites (TU), susceptible strain GSS; conditions: 72 h
Method: as §1
Mites (TU) (Tetranychus urticae)
25 adult female mites were immersed in 35 μl of a solution of the test compound in a 1:4 acetone-water mixture for 30 seconds. The treated insects were maintained at 21°±2° C. and kill was assessed 72 hours after treatment. […] Three replicates of 25 mites each were used at each dose rate and 5 or 6 dose rates were used per compound under test. LC50 values were calculated in ppm of the solution of the test compound per insect. The test was carried out using a susceptible strain of mites (GSS) supplied by Schering, AG, Berlin.
as §2

[3] = test system: Musca domestica; assay: Topical test on houseflies (MD); conditions: for MD (LD50): houseflies, topical on thorax, kill assessed 24 and 48 h
Method: as §1
Houseflies (MD) (Musca domestica)
Female flies were treated on the thorax with a one microliter drop of test compound dissolved in acetone. Two replicates of 15 flies were used at each dose rate and 6 dose rates were used per compound under test. After treatment, the flies were maintained at a temperature of 20°±1° C. and kill was assessed 24 and 48 hours after treatment. LD50 values were calculated in micrograms of test compound per fly (see Sawicki et al., Bulletin of the World Health Organisation, 35, 893 (1966) and Sawicki et al., Entomologia and Exp. Appli 10, 253, (1967).
as §2

[4] = test system: Phaedon cochleariae Fab; assay: Topical test on mustard beetles (PC); conditions: for PC LD50 (comparative examples): Table 7; for PC (LD50): mustard beetles, topical, 48 h
Method: as §1
Mustard beetles (PC) (Phaedon cochleariae Fab)
A one microliter drop of an acetone solution of the test compound was applied ventrally to adult mustard beetles using a micro drop applicator. The treated insects were maintained for 48 hours after which time kill was assessed. Two replicates each of 20 to 25 mustard beetles were used at each dose level and 5 dose levels were treated comparably. LD50 values were calculated as for houseflies.
as §2

[5] = test system: Myzus persicae; assay: Aphicidal activity, aphid-dip
Method: (§3) Activity against resistant (R) and susceptible (S) strains of aphid (Myzus persicae) and Aphis gossypiae was assessed using the following two methods.
(§4) Entrapment rings of fluon were painted halfway up the inside of 4 cm lengths of glass tubing (1.5 cm diameter), and squares of insect-proof gauze were attached to one end of each tube by elastic bands. Fifteen apterous adults were then gently transferred into the tubes using a sable-hair brush, and the tube sealed with a second gauze square.
(§5) Tubes containing aphids were dipped into insecticide solutions for 10 seconds, dried on blotting paper, and then inverted and tapped to cause treated aphids to fall to the unimmersed end of each tube. Handling mortality (usually zero or very slight) was scored after 1 hour, when aphids were transferred onto chinese cabbage leaf-discs (35 mm diameter) on an agar bed (25 mm in depth) in disposible plastic containers (30 mm high) and confined by applying a ring of fluon to the exposed lip of the container. Containers were stored upright, without lids, in a constant environment facility maintained at 25° C. under continuous room lighting. Mortality was assessed at 24, 48 and 72 hours. Two replicates of 15 aphids each were used at each dose rate and 5 or 6 dose rates were used per compound under test.
(§6) The test was carried out using a susceptible strain of aphids (US1L) collected in the field in East Anglia, UK and an extremely resistant strain of aphids (794Jz) (R^3 esterase, sensitive ACHE) collected from glasshouses in the UK.
(§7) The values given are % mortality corrected for control data. The control comprised the test solution without active ingredient.

[6] = test system: Aphis gossypiae; assay: Aphicidal activity, aphid-dip; conditions: strain 81-171B, read-out: Aphid-dip result, % kill A.G. 81-171B
Method: as §3, §4, §5, §7

[7] = test system: Myzus persicae; assay: Aphicidal activity, topical application; conditions: 72 h
Method: as §3
Batches of 10-15 apterous adults were removed from stock cultures and placed on leaf discs (35 mm in diameter) cut from chinese cabbage and held on an agar bed (25 mm deep) in disposable plastic containers (30 mm high). Using a Burkhard micro-applicator aphids were dosed individually with a 0.25 μm droplet of chemical diluted to the required concentration in acetone. control insects were dosed with acetone only. Mortality and other effects were scored at 24 hour intervals up to and including 72 hour post-treatment, the end-point to which the results relate.
as §6, §7

[8] = read-out: BT LC50 (comparative examples)
[9] = read-out: TU LC50 (comparative examples)
[10] = resistant strain 794JZ, read-out: Aphid-dip result, % kill M.P. 794JZ
[11] = susceptible strain USIL, read-out: Aphid-dip result, % kill M.P. USIL
[12] = susceptible strain USIL, read-out: Topical aphid results, % kill M.P. USIL

## CCCC1=C(O)C(=O)c2ccccc2C1=O [--(CH2)2 CH3, reference compound]
[1]; [8]
  LC50: 80 mg/L (≈ 370 µM)

## CCCCCCC1=C(O)C(=O)c2ccccc2C1=O [--(CH2)5 CH3, reference compound]
[1]; [8]
  LC50: 9.4 mg/L (≈ 36.4 µM)
[2]; [9]
  LC50: 170 mg/L (≈ 658 µM)

## CCCCCCCCC1=C(O)C(=O)c2ccccc2C1=O [--(CH2)7 CH3, reference compound]
[3]; Table 7
  MD LD50 (comparative examples): 1.9 μg/insect
[4]
  PC LD50 (comparative examples): 0.78 μg/insect

## CCCCCCCCCCC1=C(O)C(=O)c2ccccc2C1=O [--(CH2)9 CH3, reference compound]
[4]
  PC LD50 (comparative examples): 1.9 μg/insect

## CCCCCCCCCCCCC1=C(O)C(=O)c2ccccc2C1=O [--(CH2)11 CH3, reference compound]
[1]; [8]
  LC50: > 100 mg/L
[2]; [9]
  LC50: < 60 mg/L

## C[Si](C)(C)CCC1=C(OC(=O)c2ccccc2)C(=O)c2ccccc2C1=O [Example 1, 2-benzoyloxy-3-(2'-trimethylsilylethyl)-1,4-naphthoquinone]
[3]
  MD (LD50): > 20 μg/insect
[4]
  PC (LD50): > 20 μg/insect
[2]; read-out: TU (GSS) (LC50)
  LC50: 110 mg/L (≈ 291 µM)

## CC(=O)OC1=C(CC[Si](C)(C)C)C(=O)c2ccccc2C1=O [Example 4, 2-ethanoyloxy-3-(2'-trimethylsilylethyl)-1,4-naphthoquinone]
[1]; read-out: BT (SUD-S) (LC50)
  LC50: 2.9 mg/L (≈ 9.16 µM)
[5]; [10]
  mortality at 100 ppm: 19%
[5]; [11]
  mortality at 100 ppm: 19%
[2]; read-out: TU (GSS) (LC50)
  LC50: 45 mg/L (≈ 142 µM)

## COC1(OC)C(O)=C(CC[Si](C)(C)C)C(=O)c2ccccc21 [Example 5, 2-hydroxy-3-(2'-trimethylsilylethyl)-1,4-naphthoquinone, 1-dimethyl acetal]
[3]
  MD (LD50): > 20 μg/insect
[4]
  PC (LD50): ~20 μg/insect
[2]; read-out: TU (GSS) (LC50)
  LC50: 41 mg/L (≈ 128 µM)

## C[Si](C)(C)CC1=C(O)C(=O)c2ccccc2C1=O [Example 6]
[1]; read-out: BT (SUD-S) (LC50)
  LC50: 1.7 mg/L (≈ 6.53 µM)

## C[Si](C)(C)CCCC1=C(O)C(=O)c2ccccc2C1=O [Example 7]
[6]
  mortality at 100 ppm: 57%
[3]
  MD (LD50): 4.4 μg/insect
[7]; [12]
  mortality at 100 ppm: 45%
[5]; [11]
  mortality at 100 ppm: 90%
[2]; read-out: TU (GSS) (LC50)
  LC50: 6.4 mg/L (≈ 22.2 µM)

## C[Si](C)(C)CCCCC1=C(O)C(=O)c2ccccc2C1=O [Example 8]
[3]
  MD (LD50): 1.8 μg/insect
[7]; resistant strain 794JZ, 1000 ppm, read-out: Topical aphid results, % kill M.P. 794JZ
  mortality at 1000 ppm: 100%
[7]; [12]
  mortality at 100 ppm: 90%
[5]; [10]
  mortality at 100 ppm: 100%
[5]; [11]
  mortality at 100 ppm: 90%
[2]; read-out: TU (GSS) (LC50)
  LC50: 9.2 mg/L (≈ 30.4 µM)

## C[Si](C)(C)CCCCCCC1=C(O)C(=O)c2ccccc2C1=O [Example 9, 2-Hydroxy-3(6'-trimethylsilylhexyl)-1,4-naphthoquinone]
[6]
  mortality at 100 ppm: 71%
[3]
  MD (LD50): 1.8 μg/insect
[7]; [12]
  mortality at 100 ppm: 100%
[5]; [11]
  mortality at 100 ppm: 100%
[2]; read-out: TU (GSS) (LC50)
  LC50: 4.5 mg/L (≈ 13.6 µM)

## C[Si](C)(C)CCCCCCCCCCC1=C(O)C(=O)c2ccccc2C1=O [Example 13]
[6]
  mortality at 100 ppm: 83%
[3]
  MD (LD50): 9.9 μg/insect
[7]; [12]
  mortality at 100 ppm: 90%
[5]; [11]
  mortality at 100 ppm: 90%
[2]; read-out: TU (GSS) (LC50)
  LC50: 2.2 mg/L (≈ 5.69 µM)

## CC[Si](C)(C)CCCCCCCCC1=C(O)C(=O)c2ccccc2C1=O [Example 14, 2-hydroxy-3(8-(dimethylethylsilyl)octyl)-1,4-naphthoquinone]
[1]; read-out: BT (SUD-S) (LC50)
  LC50: 15 mg/L (≈ 40.3 µM)
[7]; [12]
  mortality at 100 ppm: 74%

## CC[Si](CC)(CC)CCCCCCCCC1=C(O)C(=O)c2ccccc2C1=O [Example 15]
[1]; read-out: BT (SUD-S) (LC50)
  LC50: 22 mg/L (≈ 54.9 µM)
[7]; [12]
  mortality at 100 ppm: 58%
[2]; read-out: TU (GSS) (LC50)
  LC50: 5.2 mg/L (≈ 13 µM)

## CCC[Si](CCC)(CCC)CCCCCCCCC1=C(O)C(=O)c2ccccc2C1=O [Example 16]
[1]
  mortality at 100 ppm: 79%
[4]
  PC (LD50): > 20 μg/insect
[7]; [12]
  mortality at 100 ppm: 24%

## CCC[Si](C)(C)CCCCCCCCC1=C(O)C(=O)c2ccccc2C1=O [Example 17]
[1]; read-out: BT (SUD-S) (LC50)
  LC50: 13 mg/L (≈ 33.6 µM)
[7]; [12]
  mortality at 100 ppm: 88%
[2]; read-out: TU (GSS) (LC50)
  LC50: 8.4 mg/L (≈ 21.7 µM)

## C[Si]1(CCCCCCCCC2=C(O)C(=O)c3ccccc3C2=O)CCCC1 [Example 18, 2-Hydroxy-3-(8-(1-methyl-(tetramethylenesilyl))octyl)-1,4-naphthoquinone]
[7]; [12]
  mortality at 100 ppm: 59%
[2]; read-out: TU (GSS) (LC50)
  LC50: 3.6 mg/L (≈ 9.36 µM)

## C[Si]1(CCCCCCCCC2=C(O)C(=O)c3ccccc3C2=O)CCCCC1 [Example 19, 2-hydroxy-3-(8-(1-methyl-(pentamethylenesilyl))octyl)-1,4-naphthoquinone]
[1]
  mortality at 100 ppm: 13%

## C[Si](C)(C)CC=CC1=C(O)C(=O)c2ccccc2C1=O [Example 20, 2-hydroxy-3-(3-trimethylsilyl-1-propenyl)-1,4-naphthoquinone]
[1]; read-out: BT (SUD-S) (LC50)
  LC50: 30 mg/L (≈ 105 µM)
[4]
  PC (LD50): > 20 μg/insect
[2]; read-out: TU (GSS) (LC50)
  LC50: 21 mg/L (≈ 73.3 µM)

## CC(=O)OC1=C(CCCCCCCCC[Si](C)(C)C)C(=O)c2ccccc2C1=O [Example 21, 2-ethanoyloxy-3-(9-trimethylsilylnonyl)-1,4-naphthoquinone]
[1]; read-out: BT (SUD-S) (LC50)
  LC50: < 100 mg/L
[7]; resistant strain 794JZ, read-out: Topical aphid results, % kill M.P. 794JZ
  mortality at 100 ppm: 89%
[7]; susceptible strain USIL, 125 ppm, read-out: Topical aphid results, % kill M.P. USIL
  mortality at 125 ppm: 66%
[5]; [11]
  mortality at 100 ppm: 66%
[2]; read-out: TU (GSS) (LC50)
  LC50: 2 mg/L (≈ 4.82 µM)

## CCC(=O)OC1=C(CCCCCCCCC[Si](C)(C)C)C(=O)c2ccccc2C1=O [Example 22, 2-propanoyloxy-3-(9-trimethylsilylnonyl)-1,4-naphthoquinone]
[7]; [12]
  mortality at 100 ppm: 37%

## C=COC(=O)OC1=C(CCCCCCCCC[Si](C)(C)C)C(=O)c2ccccc2C1=O [Example 23, 2-vinylcarbonato-3-(9-trimethylsilylnonyl)-1,4-naphthoquinone]
[1]
  mortality at 100 ppm: 32%
[7]; [12]
  mortality at 100 ppm: 63%

## CCOCOC1=C(CCCCCCCCC[Si](C)(C)C)C(=O)c2ccccc2C1=O [Example 24, 2-ethoxymethoxy-3-(9-trimethylsilylnonyl)-1,4-naphthoquinone]
[1]
  mortality at 100 ppm: 19%
[7]; [12]
  mortality at 100 ppm: 16%
